One compound from US8946383B2, “Obtaining cocoa extracts rich in bioactive peptides with ACE and PEP enzyme inhibitory activity” (Naturex, priority 2008, dated 2015) can be followed below.

This assay deals with CL4176 transgenic strain of C. elegans. Nature of the assay: Paralysis assay after induction of Ab peptide expression in C. elegans. Format: in vivo, Caenorhabditis elegans. The conditions noted are these: third day after inducing Ab peptide expression at 23° C.; 100 μl of fraction per plate; ZPP 0.1 mM. Here is the method:
An oxidative stress assay using the CL4176 transgenic strain of C. elegans was carried out, characterized by expressing the human amyloid beta-peptide (Abl-42) after temperature induction.
Prior data in the literature indicate that the formation of amyloid beta-peptide plaques is preceded by oxidative stress (Drake et al, “Oxidative stress precedes fibrillar deposition of Alzheimer's disease amyloid beta-peptide (1-42) in a transgenic Caenorhabditis elegans model” Neurobiol Aging 2003, 24(3):415-20). Therefore, it is interesting to evaluate if the hypothetical reduction of fibrillar deposition of Ab peptides in the neurons produced by the action of a molecule or compound gives rise to greater resistance against oxidative stress treatments. Furthermore, the expression of said peptide in these transgenic animals produces a paralysis that can be evaluated after adding the molecule or compound of interest.
To carry out the experiment, worms of the CL4176 strain having a synchronized age by means of plate cultivation of NG at 16° C. were obtained. The eggs were collected in NG plates which contained 100 μl of each peptide fraction (F11, F12, F14 and F18). […] For the first 3 days after induction, the number of worms paralyzed in each assayed condition was analyzed. […] The plates were incubated at 23° C. and after 5 hours the total number of worms that survived treatment were counted.

The structures appear in SMILES notation. Where a SMILES comes first, the peptide text is derived from it. The star is where a group is joined. Cbz = O=C(OCc1ccccc1)*

For the compound `O=C[C@@H]1CCCN1C(=O)[C@@H]1CCCN1C(=O)OCc1ccccc1` [Z-prolyl prolinal] (Cbz-Pro-Pro-aldehyde), the “percentage of non-paralyzed worms” value is reported as 99.44%.
